According to patent publication US20240376094A2, “SELECTIVE BCL-XL PROTAC COMPOUNDS AND METHODS OF USE” (Les Laboratoires Servier, priority 2021, published 2024):
pIC50: −log10 of the molar value.

Experiments:
Type in all cases: cell-based
[1] = test system: COR-L105; test: CellTiter-Glo proliferation assay, COR-L105; conditions: Homo sapiens, COR-L105, 120 h, COR-L105, 5 days; for Emax: read-out: COR-L105 Span (max)
How it was run: (§1)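 Both lines grown in RPMI-1640 + 10% FBS. COR-L105 plated flat at 1,000 cells/well overnight; NCI-H1650 grown as spheroids, 3,000 cells/well, 72 h. Compounds at 0.508 nM-10 μM final for 5 days, 37° C. ATP read by CellTiter-Glo (3D version for spheroids); IC50 from variable-slope fit normalized to untreated cells.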

[2] = test system: NCI-H1650; test: CellTiter-Glo 3D proliferation assay, NCI-H1650 spheroids; conditions: Homo sapiens, NCI-H1650, 120 h, 5 days; for Emax: read-out: NCI-H1650 Span (Amax)
How it was run: as §1

[3] = target: T1, endogenous BCL-xL (Homo sapiens, UniProt Q07817); test: Degradation of endogenous BCL-xL in COR-L105 (ProteinSimple Jess); conditions: COR-L105, 24 h, COR-L105, dose 300 nM, read-out: % BCL-xL vs. Untreated, COR-L105
T1 construct: endogenous in cells; host or cells: COR-L105 (ECACC No. 92031918); NCI-H1650 (ATCC No. CRL-5883)
Description: The BCL-xL degrader low molecular weight compounds were tested against two endogenous cancer cell lines: • COR-L105: ECACC No. 92031918 cultured in RPMI-1640+10% FBS • NCI-H1650: (ATCC No. CRL-5883 cultured in RPMI-1640+10% FBS
The ability of the BCL-xL degrader low molecular weight compounds to degrade endogenous BCL-xL was assessed using the ProteinSimple 2-40 kDa Jess Separation Module.
Cell lines were cultured in media that is optimal for their growth at 5% CO2, 37° C. in a tissue culture incubator. Prior to seeding for the degradation assay, the cells were split at least 2 days before the assay to ensure optimal growth density. On the day of seeding, adherent cells were lifted off tissue culture flasks using 0.25% trypsin. Cell viability and cell density were determined using a cell counter (Vi-Cell XR Cell Viability Analyzer, Beckman Coulter). Cells with higher than 85% viability were seeded for the assay.
The COR-L105 and the NCI-H1650 cell line were seeded in 6-well clear TC-treated multiple well plates (Costar® cat. #3516). Cells were seeded at a density of 2,000,000 cells per well in 2.5 mL of standard growth media. Plates were incubated at 5% CO2, 37° C. overnight in a tissue culture incubator. On the day of dosing, BCL-xL degrader low molecular weight compounds and a BCL-xL inhibitor control were prepared at 6× in standard growth media. The prepared drug treatments were then added to the cells resulting in a final concentration of 100-300 nM and a final volume of 3.0 mL per well. A control well of untreated cells was also included in the study. Each drug concentration was tested in singlet. Plates were incubated at 5% CO2, 37° C. for 24 hours in a tissue culture incubator.
After 24 hours, the adherent cells were lifted off tissue culture plates using 0.25% trypsin. Standard growth media was added to quench the trypsin and centrifuged for 5 minutes at 1500 rpm. Cell pellets were washed once with cold PBS and centrifuged for 5 minutes at 1500 rpm. Cells were then washed with 1 mL cold PBS and transferred to a 1.5 mL eppendorf tube. Cells were centrifuged for 10 minutes at ≥10,000 g at 4° C. in a benchtop mini-centrifuge. The entire supernatant was discarded and cells were resuspended thoroughly in 50 μL of RIPA lysis buffer, generated by the manufacturer's protocol (ProteinSimple, Cat. #CBS401: Lysis Kit—RIPA Buffer for Charge Assays). Lysates were incubated on ice for 30 minutes. Following incubation, lysates were spun in a benchtop mini-centrifuge for 15 minutes at full speed at 4° C. Supernatant was carefully transferred to a new eppendorf tube for downstream analysis.
Protein was quantified using a Pierce™ BCA Protein Assay Kit (ThermoFisher, cat #23225) following the manufacturer's instructions. A standard curve was prepared by adding 25 μL of each concentration of reference samples from a Pierce™ Bovine Serum Albumin Standard Pre-Diluted Set (ThermoFisher, cat #23208). Each reference sample was run in duplicate. Testing samples were prepared by diluting cell lysates 1:5 in UltraPure™ DNase/RNase-Free Distilled Water and tested in duplicates of 25 μL each. The BCA working reagent was prepared by addition of 50 parts of BCA Reagent A with 1 part of BCA Reagent B. For each testing well, 200 μL of BCA working reagent was added. The plate was incubated at 37° C. for 30 minutes. A SpectraMax M Series Multi-Mode Microplate Reader was used to measure the absorbance at 562 nm. A standard curve generated by the Pierce™ Bovine Serum Albumin Standard Pre-Diluted Set was used to normalize and calculate the BCA concentration of cell lysates. Only values that fell within the range of the standard curve were accepted for quantification.
The ProteinSimple 2-40 kDa Jess Separation Module was used to detect BCL-xL degradation in treated versus untreated lysates following the manufacturer's instructions (25-Capillary Cartridge, 8 pack, 2-40 kDa, cat #SM W012). […]

T1 sequence (Q07817 whole entry): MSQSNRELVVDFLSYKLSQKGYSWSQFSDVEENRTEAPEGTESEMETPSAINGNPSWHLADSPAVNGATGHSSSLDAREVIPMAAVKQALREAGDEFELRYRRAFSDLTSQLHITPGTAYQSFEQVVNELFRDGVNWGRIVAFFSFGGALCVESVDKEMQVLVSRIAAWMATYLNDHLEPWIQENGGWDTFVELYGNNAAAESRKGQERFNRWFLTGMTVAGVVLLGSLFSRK

Row | Structure (SMILES) | pIC50 [1] | Emax [1] [%] | pIC50 [2] | Emax [2] [%] | remaining activity at 0.3 µM [3] [%]
1 | Cc1ncsc1-c1ccc([C@H](C)NC(=O)[C@@H]2C[C@@H](O)CN2C(=O)[C@@H](NC(=O)CCCCCCCCN2CCN(CC#Cc3ccc(OCCCc4sc(N5CCCc6c5nnc(Nc5nc7ccccc7s5)c6C)nc4C(=O)O)c(F)c3)CC2)C(C)(C)C)cc1 [Example 52, 2-(3-(benzo[d]thiazol-2-ylamino)-4-methyl-6,7-dihydropyrido [2,3-c]pyridazin-8(5H)-yl)-5-(3-(2-fluoro-4-(3-(4-(9-(((S)-1-((2S,4R)-4-hydroxy-2-(((S)-1-(4-(4-methylthiazol-5-yl)phenyl)ethyl)carbamoyl)pyrrolidin-1-yl)-3,3-dimethyl-1-oxobutan-2-yl)amino)-9-oxononyl)piperazin-1-yl)prop-1-yn-1-yl)phenoxy)propyl)thiazole-4-carboxylic acid] | 8.00 | 80.6 | 8.55 | 60.8 | 28.6
2 | Cc1ncsc1-c1ccc([C@H](C)NC(=O)[C@@H]2C[C@@H](O)CN2C(=O)[C@@H](NC(=O)CSCC(=O)N2CCN(CC#Cc3ccc(OCCCc4sc(N5CCCc6c5nnc(Nc5nc7ccccc7s5)c6C)nc4C(=O)O)c(F)c3)CC2)C(C)(C)C)cc1 [Example 37, 2-(3-(benzo[d]thiazol-2-ylamino)-4-methyl-6,7-dihydropyrido [2,3-c]pyridazin-8(5H)-yl)-5-(3-(2-fluoro-4-(3-(4-(2-((2-(((S)-1-((2S,4R)-4-hydroxy-2-(((S)-1-(4-(4-methylthiazol-5-yl)phenyl)ethyl)carbamoyl)pyrrolidin-1-yl)-3,3-dimethyl-1-oxobutan-2-yl)amino)-2-oxoethyl)thio)acetyl)piperazin-1-yl)prop-1-yn-1-yl)phenoxy)propyl)thiazole-4-carboxylic acid] | 6.21 | 88.5 | 7.40 | 107 | 82.4
3 | Cc1ncsc1-c1ccc([C@H](C)NC(=O)[C@@H]2C[C@@H](O)CN2C(=O)[C@@H](NC(=O)CC2(CC(=O)N3CCN(CC#Cc4ccc(OCCCc5sc(N6CCCc7c6nnc(Nc6nc8ccccc8s6)c7C)nc5C(=O)O)c(F)c4)CC3)CCCC2)C(C)(C)C)cc1 [Example 39, 2-(3-(benzo[d]thiazol-2-ylamino)-4-methyl-6,7-dihydropyrido [2,3-c]pyridazin-8(5H)-yl)-5-(3-(2-fluoro-4-(3-(4-(2-(1-(2-(((S)-1-((2S,4R)-4-hydroxy-2-(((S)-1-(4-(4-methylthiazol-5-yl)phenyl)ethyl)carbamoyl)pyrrolidin-1-yl)-3,3-dimethyl-1-oxobutan-2-yl)amino)-2-oxoethyl)cyclopentyl)acetyl)piperazin-1-yl)prop-1-yn-1-yl)phenoxy)propyl) thiazole-4-carboxylic acid] | 6.28 | 95.3 | 7.42 | 96.4 | 63.6
4 | Cc1ncsc1-c1ccc(CNC(=O)[C@@H]2C[C@@H](O)CN2C(=O)[C@@H](NC(=O)CCCCCCCCCCC(=O)N2CCN(CC#Cc3ccc(OCCCc4sc(N5CCCc6c5nnc(Nc5nc7ccccc7s5)c6C)nc4C(=O)O)c(F)c3)CC2)C(C)(C)C)c(O)c1 [Example 45, 2-(3-(benzo[d]thiazol-2-ylamino)-4-methyl-6,7-dihydropyrido [2,3-c]pyridazin-8(5H)-yl)-5-(3-(2-fluoro-4-(3-(4-(12-(((S)-1-((2S,4R)-4-hydroxy-2-((2-hydroxy-4-(4-methylthiazol-5-yl)benzyl)carbamoyl)pyrrolidin-1-yl)-3,3-dimethyl-1-oxobutan-2-yl)amino)-12-oxododecanoyl)piperazin-1-yl)prop-1-yn-1-yl)phenoxy)propyl)thiazole-4-carboxylic acid] | 7.17 | 83 | 8.20 | 81.2 | 40.1
5 | Cc1ncsc1-c1ccc([C@H](C)NC(=O)[C@@H]2C[C@@H](O)CN2C(=O)[C@@H](NC(=O)C2CC3(C2)CC(C(=O)N2CCN(CC#Cc4ccc(OCCCc5sc(N6CCCc7c6nnc(Nc6nc8ccccc8s6)c7C)nc5C(=O)O)c(F)c4)CC2)C3)C(C)(C)C)cc1 (stereo partly drawn) [Example 41, 2-(3-(benzo[d]thiazol-2-ylamino)-4-methyl-6,7-dihydropyrido [2,3-c]pyridazin-8(5H)-yl)-5-(3-(2-fluoro-4-(3-(4-(6-(((S)-1-((2S,4R)-4-hydroxy-2-(((S)-1-(4-(4-methylthiazol-5-yl)phenyl)ethyl)carbamoyl)pyrrolidin-1-yl)-3,3-dimethyl-1-oxobutan-2-yl)carbamoyl)spiro[3.3]heptane-2-carbonyl)piperazin-1-yl)prop-1-yn-1-yl)phenoxy)propyl) thiazole-4-carboxylic acid] | 6.66 | 88.2 | 8.05 | 106 | 30.3
6 | Cc1ncsc1-c1ccc([C@H](C)NC(=O)[C@@H]2C[C@@H](O)CN2C(=O)[C@@H](NC(=O)CCC(=O)N2CCN(CCOC34CC5(C)CC(C)(CC(Cn6ncc(-c7ccc(N8CCCc9c8nnc(Nc8nc%10ccccc%10s8)c9C)nc7C(=O)O)c6C)(C5)C3)C4)CC2)C(C)(C)C)cc1 [Example 49, 6-(3-(benzo[d]thiazol-2-ylamino)-4-methyl-6,7-dihydropyrido [2,3-c]pyridazin-8(5H)-yl)-3-(1-(((1r,3s,5R,7S)-3-(2-(4-(4-(((S)-1-((2S,4R)-4-hydroxy-2-(((S)-1-(4-(4-methylthiazol-5-yl)phenyl)ethyl)carbamoyl)pyrrolidin-1-yl)-3,3-dimethyl-1-oxobutan-2-yl)amino)-4-oxobutanoyl)piperazin-1-yl)ethoxy)-5,7-dimethyladamantan-1-yl)methyl)-5-methyl-1H-pyrazol-4-yl)picolinic acid] | 6.51 | 92.1 | 7.36 | 89 | > 90
7 | Cc1ncsc1-c1ccc(CNC(=O)[C@@H]2C[C@@H](O)CN2C(=O)[C@@H](NC(=O)COCCOCCOCC(=O)N2CCN(CC#Cc3ccc(OCCCc4sc(N5CCCc6c5nnc(Nc5nc7ccccc7s5)c6C)nc4C(=O)O)c(F)c3)CC2)C(C)(C)C)cc1 [Example 40, 2-(3-(benzo[d]thiazol-2-ylamino)-4-methyl-6,7-dihydropyrido [2,3-c]pyridazin-8(5H)-yl)-5-(3-(2-fluoro-4-(3-(4-((S)-13-((2S,4R)-4-hydroxy-2-((4-(4-methylthiazol-5-yl)benzyl)carbamoyl)pyrrolidine-1-carbonyl)-14,14-dimethyl-11-oxo-3,6,9-trioxa-12-azapentadecanoyl)piperazin-1-yl)prop-1-yn-1-yl)phenoxy)propyl)thiazole-4-carboxylic acid] | 6.97 | 82.1 | 7.81 | 87.3 | 71.4
